Patent US12729231B2, “Fusion protein having triple activity and use thereof” (SHANGHAI MINWEI BIOTECHNOLOGY CO., LTD, priority 2023, dated 2026)

B1: natural FGF21: Fibroblast growth factor 21, wild type, SEQ ID NO 1 (protein)
chain: HPIPDSSPLLQFGGQVRQRYLYTDDAQQTEAHLEIREDGTVGGAADQSPESLLQLKALKPGVIQILGVKTSRFLCQRPDGALYGSLHFDPEACSFRELLLEDGYNVYQSEAHGLPLHLPGNKSPHRDPAPRGPARFLPLPGLPPALPEPPGILAPQPPDVGSSDPLSMVGPSQGRSPSYAS
modifications: Wild type FGF21
B2: FGF21 L98R, P171G, A180E: FGF21 with the L98R, P171G, and A180E mutations, background literature variant (protein, UniProt Q9NSA1 29-209, looked up, variant L98R P171G A180E)
Fibroblast growth factor 21: HPIPDSSPLLQFGGQVRQRYLYTDDAQQTEAHLEIREDGTVGGAADQSPESLLQLKALKPGVIQILGVKTSRFLCQRPDGALYGSLHFDPEACSFRERLLEDGYNVYQSEAHGLPLHLPGNKSPHRDPAPRGPARFLPLPGLPPALPEPPGILAPQPPDVGSSDPLSMVGGSQGRSPSYES

How the values were obtained:
DIO mice = assay: body weight reduction by multiple subcutaneous injections in DIO mice; assay type: in vivo; details: 30 nmol/kg subcutaneous twice a week for 5 weeks, mean of 6 mice
Description: 7-week-old C57BL/6Nju mice were fed with a high-fat diet (of about 20% protein and about 60% fat) for 12 weeks for modeling. Feeding conditions: 12 hours of light and 12 hours of darkness cycle every day, ad libitum feeding, temperature 20-25° C., relative humidity 40-70%, ventilation frequency of 10-15 times/hour. According to body weight, water consumption, and food intake, the mice were randomly divided into groups the day before administration. […] Subcutaneous injection treatment was administered twice a week for 5 consecutive weeks, for a total of 10 administrations. After the administration, the body weight, OGTT, body fat ratio, blood lipids and liver function of the mice were measured. The data are shown as mean±standard deviation, and statistically analyzed by One-Way ANOVA.

[1] = cynomolgus macaques; cited from earlier work

Row | Molecule | ALT (DIO mice; DIO mice) | AST (DIO mice; DIO mice) | Blood glucose (fasting) (DIO mice; DIO mice) | LDL-C (plasma low-density lipoprotein cholesterol) (DIO mice; DIO mice) | TC (plasma total cholesterol) (DIO mice; DIO mice) | % Change in weight since inception (DIO mice; DIO obese mice) | half-life in vivo [1]
1 | Tirzepatide | 19.000 U/L | 54.683 U/L | 7.2 mmol/L | 0.423 mmol/L | 3.923 mmol/L | −22.55% | 
2 | B1 |  |  |  |  |  |  | 2 to 3 h
3 | B2 |  |  |  |  |  |  | about 70 hours
